In patent US20050209157A1, “Short bioactive peptides and methods for their use” (priority 2001, published 2005):
≈ marks a conversion by molar mass, not a printed value.

What was measured:
Test in all cases: Antimicrobial assay I, modified protocol (tryptic soy broth), MBC
Settings in all cases: minimum bactericidal concentration, Table 4
[1] = test system: Stapholococcus aureus ATCC 25923
[2] = test system: Escherichia coli ATCC 25922
[3] = test system: Pseudomonas aeruginosa ATCC 27853

Compound | MBC S. aur A.25923 [1] [µg/mL] | MBC E. coli A.25922 [2] [µg/mL] | MBC P. aerug A.27853 [3] [µg/mL]
CC(C)C[C@H](NC(=O)[C@H](C)NC(=O)[C@H](CC(C)C)NC(=O)[C@H](C)NC(=O)[C@H](CCCCN)NC(=O)[C@H](CCCCN)NC(=O)[C@H](C)NC(=O)[C@H](CC(C)C)NC(=O)[C@H](CCCCN)NC(=O)[C@H](C)NC(=O)[C@H](CC(C)C)NC(=O)[C@H](CCCCN)NC(=O)[C@H](CCCCN)NC(=O)[C@H](C)NC(=O)[C@@H](N)Cc1ccccc1)C(N)=O [compound 39] | >40 | >40 | >40
CC(C)C[C@H](NC(=O)[C@H](C)NC(=O)[C@H](CC(C)C)NC(=O)[C@H](CCCCN)NC(=O)[C@H](C)NC(=O)[C@H](CC(C)C)NC(=O)[C@H](CCCCN)NC(=O)[C@H](CCCCN)NC(=O)[C@H](CC(C)C)NC(=O)[C@H](CCCCN)NC(=O)[C@H](CCCCN)NC(=O)[C@H](C)NC(=O)[C@H](CC(C)C)NC(=O)[C@H](CCCCN)NC(=O)[C@H](CCCCN)NC(=O)[C@H](C)NC(=O)[C@@H](N)Cc1ccccc1)C(=O)N[C@@H](C)C(=O)N[C@@H](CCCCN)C(N)=O [compound 41] | 40 (≈ 19 µM) | 40 (≈ 19 µM) | 40 (≈ 19 µM)
CC(C)C[C@H](NC(=O)[C@H](C)NC(=O)[C@H](CCCCN)NC(=O)[C@H](CCCCN)NC(=O)[C@H](C)NC(=O)[C@H](CCCCN)NC(=O)[C@H](CCCCN)NC(=O)[C@H](CC(C)C)NC(=O)[C@H](C)NC(=O)[C@H](CCCCN)NC(=O)[C@H](CCCCN)NC(=O)[C@H](C)NC(=O)[C@H](CC(C)C)NC(=O)[C@H](C)NC(=O)[C@@H](N)Cc1ccccc1)C(N)=O [compound 40] | >40 | 30 (≈ 18.4 µM) | 40 (≈ 24.6 µM)
CC[C@H](C)[C@H](NC(=O)CNC(=O)[C@H](CC(N)=O)NC(=O)[C@H](CCCNC(=N)N)NC(=O)[C@@H](NC(=O)[C@H](CC(N)=O)NC(=O)[C@H](CCCNC(=N)N)NC(=O)CNC(=O)[C@@H](NC(=O)[C@H](CCCCN)NC(=O)[C@H](CCC(=O)O)NC(=O)[C@@H](NC(=O)[C@H](CCCCN)NC(=O)[C@H](CCCCN)NC(=O)[C@H](Cc1ccccc1)NC(=O)[C@@H](NC(=O)[C@H](CCCCN)NC(=O)[C@H](Cc1c[nH]c2ccccc12)NC(=O)[C@H](CCCCN)NC(=O)[C@@H]1CCCN1C(=O)[C@@H](N)CCSC)C(C)C)[C@@H](C)CC)C(C)C)[C@@H](C)CC)C(=O)N[C@H](C(=O)N[C@@H](CCCCN)C(=O)N[C@@H](C)C(=O)NCC(=O)N1CCC[C@H]1C(=O)N[C@@H](C)C(=O)N[C@H](C(=O)N[C@@H](C)C(=O)N[C@H](C(=O)N[C@@H](CC(C)C)C(=O)NCC(=O)N[C@@H](CCC(=O)O)C(=O)N[C@@H](C)C(=O)N[C@@H](CCCCN)C(=O)N[C@@H](C)C(=O)N[C@@H](CC(C)C)C(=O)NCC(=O)O)C(C)C)[C@@H](C)CC)C(C)C [compound 5] | 40 (≈ 9.78 µM) | 50 (≈ 12.2 µM) | >60
CC[C@H](C)[C@H](NC(=O)CNC(=O)[C@H](CC(N)=O)NC(=O)[C@H](CCCNC(=N)N)NC(=O)[C@@H](NC(=O)[C@H](CC(N)=O)NC(=O)[C@H](CCCNC(=N)N)NC(=O)CNC(=O)[C@@H](NC(=O)[C@H](CCCCN)NC(=O)[C@H](CCC(=O)O)NC(=O)[C@@H](NC(=O)[C@H](CCCCN)NC(=O)[C@H](CCCCN)NC(=O)[C@H](Cc1ccccc1)NC(=O)[C@@H](NC(=O)[C@H](CCCCN)NC(=O)[C@H](Cc1c[nH]c2ccccc12)NC(=O)[C@H](CCCCN)NC(=O)[C@@H]1CCCN1C(=O)[C@@H](N)CCSC)C(C)C)[C@@H](C)CC)C(C)C)[C@@H](C)CC)C(=O)N[C@H](C(=O)N[C@@H](CCCCN)C(=O)N[C@@H](C)C(=O)NCC(=O)N1CCC[C@H]1C(=O)N[C@@H](C)C(=O)N[C@H](C(=O)N[C@@H](C)C(=O)N[C@H](C(=O)N[C@@H](CC(C)C)C(=O)NCC(=O)N[C@@H](CCC(=O)O)C(=O)N[C@@H](C)C(=O)N[C@@H](CCCCN)C(=O)N[C@@H](C)C(=O)N[C@@H](CC(C)C)C(=O)NCC(N)=O)C(C)C)[C@@H](C)CC)C(C)C [compound 12] | 75 (≈ 18.3 µM) | 50 (≈ 12.2 µM) | >60
